Laboratory results: ChEMBL document CHEMBL3124779, “Discovery of ABT-267, a pan-genotypic inhibitor of HCV NS5A” (J Med Chem, 2014)
pEC50: −log10 of the molar value.

What was measured:
Hepatitis C virus [1] = assay: Ratio of EC50 for HCV1b Con1 infected in human HuH7 cells in presence of 40% human plasma to EC50 for HCV1b Con1 infected in human HuH7 cells in absence of 40% human plasma; type: functional, Hepacivirus hominis, isolate Con1, Huh-7
Hepatitis C virus [2] = assay: Antiviral activity against HCV1a H77 infected in human HuH7 cells assessed as inhibition of viral replication after 4 days by luciferase reporter gene assay in presence of 40% human plasma; type: functional, organism-based, Hepacivirus hominis; details: genotype 1a H77, Huh-7, Plasma, 96 h
Hepatitis C virus [3] = assay: Ratio of EC50 for HCV1a H77 infected in human HuH7 cells in presence of 40% human plasma to EC50 for HCV1a H77 infected in human HuH7 cells in absence of 40% human plasma; type: functional, Hepacivirus hominis, genotype 1a H77, Huh-7
Hepatitis C virus [4] = assay: Antiviral activity against HCV1b Con1 infected in human HuH7 cells assessed as inhibition of viral replication after 4 days by luciferase reporter gene assay; type: functional, organism-based, Hepacivirus hominis; details: isolate Con1, Huh-7, 96 h
Hepatitis C virus [5] = assay: Antiviral activity against HCV1b Con1 infected in human HuH7 cells assessed as inhibition of viral replication after 4 days by luciferase reporter gene assay in presence of 40% human plasma; type: functional, organism-based, Hepacivirus hominis; details: isolate Con1, Huh-7, Plasma, 96 h
Hepatitis C virus [6] = assay: Antiviral activity against HCV1a H77 infected in human HuH7 cells assessed as inhibition of viral replication after 4 days by luciferase reporter gene assay; type: functional, organism-based, Hepacivirus hominis; details: genotype 1a H77, Huh-7, 96 h

| SMILES | Ratio EC50 (Hepatitis C virus [1]) | pEC50 (Hepatitis C virus [2]) | Ratio EC50 (Hepatitis C virus [3]) | pEC50 (Hepatitis C virus [4]) | pEC50 (Hepatitis C virus [5]) | pEC50 (Hepatitis C virus [6]) |
| --- | --- | --- | --- | --- | --- | --- |
| COC(=O)N[C@H](C(=O)N1CCC[C@H]1C(=O)Nc1ccc([C@H]2CC[C@@H](c3ccc(NC(=O)[C@@H]4CCCN4C(=O)[C@@H](NC(=O)OC)C(C)(C)C)cc3)N2c2ccc(F)cc2)cc1)C(C)(C)C | 9 | 6.99 | 17 | 10.49 | 9.56 | 8.21 |
| CC[C@H](NC(=O)OC)C(=O)N1CCC[C@H]1C(=O)Nc1ccc([C@@H]2CC[C@@H](c3ccc(NC(=O)[C@@H]4CCCN4C(=O)[C@H](CC)NC(=O)OC)cc3)N2c2ccc(F)cc2)cc1 | 7 | 7.47 | 7 | 9.85 | 9.00 | 8.34 |
| COC(=O)N[C@H](C(=O)N1CCC[C@H]1C(=O)Nc1ccc([C@@H]2CC[C@@H](c3ccc(NC(=O)[C@@H]4CCCN4C(=O)[C@@H](NC(=O)OC)C(C)C)cc3)N2c2ccc(OC)cc2)cc1)C(C)C | 6 | 8.23 | 6 | 10.12 | 9.35 | 9.00 |
| COC(=O)N[C@H](C(=O)N1CCC[C@H]1C(=O)Nc1ccc([C@@H]2CC[C@@H](c3ccc(NC(=O)[C@@H]4CCCN4C(=O)[C@@H](NC(=O)OC)C(C)(C)C)cc3)N2c2ccc(C(F)(F)F)cc2)cc1)C(C)(C)C | 24 | 8.38 | 42 | 11.06 | 9.68 | 10.00 |
| COC(=O)N[C@H](C(=O)N1CCC[C@H]1C(=O)Nc1ccc([C@H]2CC[C@H](c3ccc(NC(=O)[C@@H]4CCCN4C(=O)[C@@H](NC(=O)OC)C(C)(C)C)cc3)N2c2ccc(C(F)(F)F)cc2)cc1)C(C)(C)C | 17 | 7.84 | 17 | 10.96 | 9.74 | 9.08 |
| COC(=O)N[C@H](C(=O)N1CCC[C@H]1C(=O)Nc1ccc([C@H]2CC[C@H](c3ccc(NC(=O)[C@@H]4CCCN4C(=O)[C@@H](NC(=O)OC)C(C)C)cc3)N2c2ccc(C3CC3)cc2)cc1)C(C)C | 13 | 8.77 | 10 | 11.06 | 9.94 | 9.79 |
| COC(=O)N[C@H](C(=O)N1CCC[C@H]1C(=O)Nc1ccc([C@@H]2CC[C@@H](c3ccc(NC(=O)[C@@H]4CCCN4C(=O)[C@@H](NC(=O)OC)C(C)C)cc3)N2c2ccc(C(C)(C)CO)cc2)cc1)C(C)C | 10 | 8.83 | 13 | 10.02 | 9.02 | 9.94 |
| COC(=O)N[C@H](C(=O)N1CCC[C@H]1C(=O)Nc1ccc([C@H]2CC[C@H](c3ccc(NC(=O)[C@@H]4CCCN4C(=O)[C@@H](NC(=O)OC)C(C)(C)C)cc3)N2c2ccc(S(C)(=O)=O)cc2)cc1)C(C)(C)C | 15 | 7.56 | 42 | 9.65 | 8.47 | 9.18 |
| COC(=O)N[C@H](C(=O)N1CCC[C@H]1C(=O)Nc1ccc([C@@H]2CC[C@@H](c3ccc(NC(=O)[C@@H]4CCCN4C(=O)[C@@H](NC(=O)OC)C(C)C)cc3)N2c2ccc(-c3cccnc3)cc2)cc1)C(C)C | 9 | 8.59 | 18 | 10.16 | 9.22 | 9.84 |
| COC(=O)N[C@H](C(=O)N1CCC[C@H]1C(=O)Nc1ccc([C@H]2CC[C@H](c3ccc(NC(=O)[C@@H]4CCCN4C(=O)[C@@H](NC(=O)OC)C(C)(C)C)cc3)N2c2ccc(N3CCOCC3)cc2)cc1)C(C)(C)C | 8 | 7.95 | 9 | 9.68 | 8.80 | 8.91 |
| COC(=O)N[C@H](C(=O)N1CCC[C@H]1C(=O)Nc1ccc(CN(Cc2ccc(NC(=O)[C@@H]3CCCN3C(=O)[C@@H](NC(=O)OC)C(C)C)cc2)c2ccc(F)cc2)cc1)C(C)C | – | – | – | 9.40 | – | 7.42 |
| COC(=O)N[C@H](C(=O)N1CCC[C@H]1C(=O)Nc1ccc([C@@H]2CC[C@@H](c3ccc(NC(=O)[C@@H]4CCCN4C(=O)[C@@H](NC(=O)OC)C(C)C)cc3)N2)cc1)C(C)C | – | – | – | 6.55 | – | 6.60 |
| COC(=O)N[C@H](C(=O)N1CCC[C@H]1C(=O)Nc1ccc([C@H]2CC[C@@H](c3ccc(NC(=O)[C@@H]4CCCN4C(=O)[C@@H](NC(=O)OC)C(C)C)cc3)N2c2ccc(F)cc2)cc1)C(C)C | 3 | 7.09 | 4 | 10.05 | 9.52 | 7.66 |
| CC[C@@H](C)[C@H](NC(=O)OC)C(=O)N1CCC[C@H]1C(=O)Nc1ccc([C@@H]2CC[C@@H](c3ccc(NC(=O)[C@@H]4CCCN4C(=O)[C@@H](NC(=O)OC)[C@H](C)CC)cc3)N2c2ccc(F)cc2)cc1 (mixture of isomers) | 9 | 8.18 | 32 | 11.00 | 10.05 | 9.69 |
| COC(=O)N[C@H](C(=O)N1CCC[C@H]1C(=O)Nc1ccc([C@@H]2CC[C@@H](c3ccc(NC(=O)[C@@H]4CCCN4C(=O)[C@@H](NC(=O)OC)c4ccccc4)cc3)N2c2ccc(F)cc2)cc1)c1ccccc1 (mixture of isomers) | 37 | 7.64 | 22 | 11.70 | 10.14 | 8.97 |
| COC(=O)N[C@H](C(=O)N1CCC[C@H]1C(=O)Nc1ccc([C@@H]2CC[C@@H](c3ccc(NC(=O)[C@@H]4CCCN4C(=O)[C@@H](NC(=O)OC)C(C)(C)O)cc3)N2c2ccc(F)cc2)cc1)C(C)(C)O (mixture of isomers) | 52 | 7.74 | 30 | 10.30 | 8.59 | 9.22 |
| COC(=O)N[C@H](C(=O)N1CCC[C@H]1C(=O)Nc1ccc([C@@H]2CC[C@@H](c3ccc(NC(=O)[C@@H]4CCCN4C(=O)[C@@H](NC(=O)OC)C(C)C)cc3)N2c2ccc(Cl)cc2)cc1)C(C)C (mixture of isomers) | 10 | 8.39 | 11 | 10.52 | 9.52 | 9.43 |
| COC(=O)N[C@H](C(=O)N1CCC[C@H]1C(=O)Nc1ccc([C@@H]2CC[C@@H](c3ccc(NC(=O)[C@@H]4CCCN4C(=O)[C@@H](NC(=O)OC)C(C)C)cc3)N2c2ccc(Br)cc2)cc1)C(C)C (mixture of isomers) | 13 | 8.35 | 16 | 11.17 | 10.05 | 9.54 |
| COC(=O)N[C@H](C(=O)N1CCC[C@H]1C(=O)Nc1ccc([C@@H]2CC[C@@H](c3ccc(NC(=O)[C@@H]4CCCN4C(=O)[C@@H](NC(=O)OC)C(C)C)cc3)N2c2ccc(O)cc2)cc1)C(C)C (mixture of isomers) | 9 | 6.62 | 11 | 8.18 | 7.23 | 7.64 |
| COC(=O)N[C@H](C(=O)N1CCC[C@H]1C(=O)Nc1ccc([C@@H]2CC[C@@H](c3ccc(NC(=O)[C@@H]4CCCN4C(=O)[C@@H](NC(=O)OC)C(C)C)cc3)N2c2ccc(C(C)C)cc2)cc1)C(C)C (mixture of isomers) | 11 | 9.15 | 21 | 11.10 | 10.07 | 10.48 |
| COC(=O)N[C@H](C(=O)N1CCC[C@H]1C(=O)Nc1ccc([C@@H]2CC[C@@H](c3ccc(NC(=O)[C@@H]4CCCN4C(=O)[C@@H](NC(=O)OC)C(C)C)cc3)N2c2ccc(-c3ccccc3)cc2)cc1)C(C)C (mixture of isomers) | 23 | 8.77 | 19 | 10.96 | 9.59 | 9.05 |
